Laboratory results: patent US20070185168A1, “Piperidine derivatives” (priority 2004, published 2007)
Read-outs that look alike come from different tables or passages of the source.

Columns and labels:
[1] = molecular target: T1, NR2B subunit of the NMDA receptor (Rattus norvegicus, UniProt P35439+Q00960); assay: Antagonistic activity at rat NMDA receptor NR2B subunit: inhibition of [3H]ifenprodil binding to rat forebrain membrane
T1 construct: The forebrain membrane specimen of male rats of an SD strain; from tissue; host or cells: rat (SD strain, male) forebrain membranes
Description: Antagonistic Activity at Rat NMDA Receptor NR2B Subunit
The forebrain membrane specimen of male rats of an SD strain (final concentration: 250 μg protein/mL), [^3H]-ifenprodil [diluted with an HEPES buffer (20 mmol/L HEPES-KOH and 100 μmol/L trifluoroperazine (pH 7.4)) to give the final concentration of 4 nmol/L] and a test compound (each being diluted with an HEPES buffer to give the final concentration of […]) were mixed, and incubated at 25° C. for 90 minutes shading from light. The above-incubated membrane was recovered to a G/F-B filter using a cell harvester (Brandel; M-24) to stop the reaction. The resulting membrane was further washed with an HEPES buffer for three times, and radioactivity on the filter was measured (Beckman LS 6500). The antagonistic activity of the test compound for an NMDA receptor NR2B subunit was calculated by the following formula as an inhibiting rate for binding of [^3H]ifenprodil to the NR2B subunit of the NMDA receptor. The result is shown in Table 6 in terms of the concentration (IC50 value) of the test compound for 50% inhibition of binding of [^3H]ifenprodil to the NR2B subunit of the NMDA receptor. [formula] Non-specific binding amount: Binding amount of [^3H]ifenprodil in the presence of 10 μmol/L of ifenprodil Total binding amount: Binding amount of [^3H]ifenprodil in the absence of the test compound
Binding amount in the present of test compound: Binding amount of [^3H]ifenprodil in the presence of the test compound in each concentration

[2] = system: strangulated nerve-damaged rats; assay: Suppressive effect on neurogenic pain (allodynia, von Frey pain threshold) in strangulated nerve-damaged rats; format: in vivo, rat; settings: male SD rats, orally administered at the dose of 5 and 10 mg/kg, measured 1, 3 and 5 hours after administration
Description: Suppressive Effect of the Compound to Neurogenic Pain in Strangulated Nerve-damaged Rats
The test was carried out in accordance with a method by G. M. Pitcher, et al. [Pain, 1999,. vol. 83, pages 37 to 46] which is an improvement of a method by T. Mosconi and K. Kruger [Pain, 1996, vol. 64, pages 37 to 57].
Using male rats of an SD strain (Sprague-Dawley rats), strangulated nerve-damaged rats were prepared by removing sciatic nerve under anesthetizing with pentobarbital, and covering with a PE-60 polyethylene tube (trade name: Intramedic; size: PE-60; manufactured by Becton Dickinson) having a length of 2 mm over the removed area. After 14 to 21 days from the preparation, the following test was carried out. Incidentally, a pain threshold (g) was calculated by the following method, and the rats (strangulated rat-damaged rats) showing less than 4 g of a 50% pain threshold were used for the test in which one group comprised six rats. […]
For the measurement of allodynia which is characteristically noted in neurogenic pain, a von Frey filament (trade name: touch test sensory evaluator; catalog number: model 58011) was used and the result is expressed as a pain threshold (g). The pain threshold (g) was calculated by the up-down method by W. J. Dixon [Annual Review of Pharmacology and Toxicology, 1980, vol. […]

[3] = forebrain membrane of male SD rats, 4 nmol/L [3H]-ifenprodil, 25° C., 90 minutes, read-out: IC50, concentration for 50% inhibition of binding of [3H]ifenprodil to the NR2B subunit of the NMDA receptor

T1 sequence (Q00960 27-1482, other chains not shown): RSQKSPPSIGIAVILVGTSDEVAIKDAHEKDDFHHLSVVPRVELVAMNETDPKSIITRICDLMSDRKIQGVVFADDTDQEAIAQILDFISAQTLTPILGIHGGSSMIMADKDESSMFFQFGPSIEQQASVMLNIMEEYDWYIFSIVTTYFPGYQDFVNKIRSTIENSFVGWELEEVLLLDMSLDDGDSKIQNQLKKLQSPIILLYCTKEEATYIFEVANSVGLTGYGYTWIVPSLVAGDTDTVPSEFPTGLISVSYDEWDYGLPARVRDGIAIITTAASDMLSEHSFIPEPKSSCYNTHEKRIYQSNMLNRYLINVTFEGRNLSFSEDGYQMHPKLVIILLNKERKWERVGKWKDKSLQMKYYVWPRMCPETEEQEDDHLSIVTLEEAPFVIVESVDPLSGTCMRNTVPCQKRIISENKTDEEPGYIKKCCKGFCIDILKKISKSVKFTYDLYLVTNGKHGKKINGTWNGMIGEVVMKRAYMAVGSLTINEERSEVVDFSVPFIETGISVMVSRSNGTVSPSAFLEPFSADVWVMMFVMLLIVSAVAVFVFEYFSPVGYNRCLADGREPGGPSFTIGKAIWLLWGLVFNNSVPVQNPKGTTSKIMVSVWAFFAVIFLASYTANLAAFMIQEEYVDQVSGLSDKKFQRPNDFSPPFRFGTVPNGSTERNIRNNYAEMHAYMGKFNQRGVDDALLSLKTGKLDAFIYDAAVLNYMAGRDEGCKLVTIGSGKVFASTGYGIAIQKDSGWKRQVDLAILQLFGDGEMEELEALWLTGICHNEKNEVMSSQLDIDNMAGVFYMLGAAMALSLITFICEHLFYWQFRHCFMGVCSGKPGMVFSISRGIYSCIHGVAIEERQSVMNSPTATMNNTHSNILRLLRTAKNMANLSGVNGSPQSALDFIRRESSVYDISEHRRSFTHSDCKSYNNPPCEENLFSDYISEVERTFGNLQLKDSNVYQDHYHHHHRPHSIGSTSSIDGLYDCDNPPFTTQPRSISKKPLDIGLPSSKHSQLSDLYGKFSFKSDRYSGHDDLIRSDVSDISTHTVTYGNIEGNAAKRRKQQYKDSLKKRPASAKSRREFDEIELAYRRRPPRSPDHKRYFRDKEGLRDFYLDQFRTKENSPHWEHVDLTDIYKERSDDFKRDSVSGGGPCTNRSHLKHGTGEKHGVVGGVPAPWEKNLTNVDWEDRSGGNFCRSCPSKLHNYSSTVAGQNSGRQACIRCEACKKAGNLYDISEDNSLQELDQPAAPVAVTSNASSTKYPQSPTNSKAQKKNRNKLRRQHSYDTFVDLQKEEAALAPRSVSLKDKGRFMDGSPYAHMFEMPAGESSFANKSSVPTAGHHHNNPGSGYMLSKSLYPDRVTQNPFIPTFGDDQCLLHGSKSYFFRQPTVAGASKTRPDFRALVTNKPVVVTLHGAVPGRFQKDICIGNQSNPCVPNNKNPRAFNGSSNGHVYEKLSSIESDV

Row | SMILES | IC50 [1, 3] | improvement of allodynia (pain threshold, von Frey filament) versus Solvent treated group [2] | IC50 [1]
1 | CC(C(O)c1ccc2c(c1)CCC(=O)N2)N1CCC(O)(c2cccs2)CC1 (racemic) [Compound 7, (±)-erythro-6-{1-Hydroxy-2-[4-hydroxy-4-(thiophene-2-yl)piperidino]propyl}-3,4-dihydroquinolin-2(1H)-one] | 5.5 nM |  | 
2 | O=C1CCc2cc(C(O)CN3CCC(O)(c4cccs4)CC3)ccc2N1 (centres unmarked) [Compound 10] | 5.2 nM | significantly improved | 
3 | CC(C(O)c1ccc2c(c1)CCC(=O)N2)N1CCC(O)(c2cccs2)CC1 (racemic) [Compound 6, (±)-threo-6-{1-Hydroxy-2-[4-hydroxy-4-(thiophene-2-yl)piperidino]propyl}-3,4-dihydroquinolin-2(1H)-one] | 4.6 nM | significantly improved | 
4 | O=c1[nH]c2ccc(C(O)CN3CCC(O)(c4cccs4)CC3)cc2s1 (centres unmarked) [Compound 5, 6-{1-Hydroxy-2-[4-hydroxy-4-(thiophene-2-yl)-piperidino]ethyl}benzothiazol-2(3H)-one] |  |  | 2.9 nM
5 | CC(C(O)c1ccc2[nH]c(=O)sc2c1)N1CCC(O)(c2cccs2)CC1 (racemic) [Compound 2, (±)-erythro-6-{1-hydroxy-2-[4-hydroxy-4-thiophenee-2-yl)piperidino]propyl}benzothiazol-2(3H)-one] |  |  | 4.1 nM
6 | CC(C(O)c1ccc2[nH]c(=O)sc2c1)N1CCC(O)(c2cccs2)CC1 (racemic) [Compound 1, (±)-threo-6-{1-Hydroxy-2-[4-hydroxy-4-(thiophenee-2-yl)piperidino]propyl}benzothiazol-2(3H)-one] |  |  | 2 nM
